One data set relates to Jurkat. As to the kind of experiment: Cytotoxicity against human Jurkat T-lymphoblastoid leukemia cells after 24 to 48 hrs by MTS assay. Type of data set: cell-based. (In general: Tetrazolium assays rely on reduction of a dye to a coloured formazan, in cell work by metabolically active cells.)
Data set [1] concerns the target T1, Heat shock protein HSP 90-beta (Homo sapiens, UniProt P08238). In words: Binding affinity to Hsp90 after 1 hrs by Western blotting. For orientation: Immunoblotting shows a protein as a band on a membrane.
Data set [2] has as its target T1, Heat shock protein HSP 90-beta. In words: Binding affinity to human Hsp90 open state by fluorescence polarization anisotropy. For orientation: In fluorescence polarisation assays a small probe gives low polarisation when free and higher when bound to something large.
Data set [3] has the same target. In words: Binding affinity to human Hsp90 closed state by fluorescence polarization anisotropy.
Data set [4] can be described thus: Binding affinity to Saccharomyces cerevisiae Hsc82 open apo state by fluorescence polarization anisotropy method.
Data set [5] can be described thus: Binding affinity to Saccharomyces cerevisiae Hsc82 closed state by fluorescence polarization anisotropy method in presence of non-hydrolyzable ATP analog AMPPNP.

Active and inactive are the calls of the source. The calls are words filed in the database; no cut-off is given here. Side chains are listed from the residue outwards. Peptide text beside a SMILES is read from it. * marks the point of attachment. Biotin = O=C1N[C@H]2[C@H](CS[C@H]2CCCCC(=O)*)N1; PEG4 = NCCOCCOCCOCCOCCC(=O)O

T1 sequence (P08238 whole entry): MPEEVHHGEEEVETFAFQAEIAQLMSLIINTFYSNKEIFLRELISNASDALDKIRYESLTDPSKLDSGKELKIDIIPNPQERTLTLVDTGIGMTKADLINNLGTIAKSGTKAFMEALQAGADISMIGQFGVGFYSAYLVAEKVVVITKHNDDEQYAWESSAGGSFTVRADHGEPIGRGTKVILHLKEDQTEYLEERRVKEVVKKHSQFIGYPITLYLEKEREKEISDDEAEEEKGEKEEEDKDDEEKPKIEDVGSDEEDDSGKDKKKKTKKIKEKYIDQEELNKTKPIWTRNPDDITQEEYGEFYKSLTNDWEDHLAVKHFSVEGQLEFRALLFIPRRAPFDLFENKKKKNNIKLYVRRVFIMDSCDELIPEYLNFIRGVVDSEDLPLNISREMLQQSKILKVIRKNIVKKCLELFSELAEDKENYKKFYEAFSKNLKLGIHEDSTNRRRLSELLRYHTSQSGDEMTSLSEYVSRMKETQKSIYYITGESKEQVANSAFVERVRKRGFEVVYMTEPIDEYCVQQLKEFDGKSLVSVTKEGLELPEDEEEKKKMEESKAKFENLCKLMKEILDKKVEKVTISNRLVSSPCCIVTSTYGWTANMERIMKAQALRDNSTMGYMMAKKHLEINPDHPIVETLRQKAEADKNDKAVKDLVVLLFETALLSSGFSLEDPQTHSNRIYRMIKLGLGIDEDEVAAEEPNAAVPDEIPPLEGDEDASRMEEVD

Take `CO[C@@H]1[C@@H](OC(N)=O)[C@@H](O)[C@H](Oc2ccc3c(O)c(NC(=O)c4ccc(O)c(CC=C(C)C)c4)c(=O)oc3c2C)OC1(C)C` [NOVOBIOCIN]: the Activity in the data set with Jurkat is 700 µM.

Turning to `CC(C)C[C@@H]1NC(=O)[C@H](Cc2ccccc2)NC(=O)[C@H](CC(C)C)NC(=O)[C@H](C(C)C)NC(=O)[C@H](CCCCNC(=O)CCOCCOCCOCCOCCNC(=O)CCCC[C@@H]2SC[C@@H]3NC(=O)N[C@@H]32)NC1=O` (cyclo(FLK([PEG4-Biotin])VL)), the affinity in data set [1], expressed as Kd, was 20 µM.

As for `CC(C)C[C@@H]1NC(=O)[C@H](CCCCNC(=O)OCc2ccccc2)NC(=O)[C@H](Cc2ccccc2)NC(=O)[C@@H](Cc2ccccc2)N(C)C(=O)[C@H](C(C)C)NC1=O`, the outcome in data set [2] and in data set [3] was Active.

For the molecule `CC(C)[C@@H]1NC(=O)[C@H](CCCCNC(=O)c2ccc(C(=O)O)c(-c3c4ccc(=O)cc-4oc4cc(O)ccc34)c2)NC(=O)[C@H](CCCCNC(=O)OCc2ccccc2)NC(=O)[C@H](Cc2ccccc2)NC(=O)[C@@H](Cc2ccccc2)N(C)C1=O`, the Kd was determined as 103 µM in data set [4] and 55 µM in data set [5].

As to `CC(C)C[C@@H]1NC(=O)[C@H](CCCCNC(=O)OCc2ccccc2)NC(=O)[C@H](Cc2ccccc2)NC(=O)[C@@H](Cc2ccccc2)N(C)C(=O)[C@H](CCCCNC(=O)c2ccc(C(=O)O)c(-c3c4ccc(=O)cc-4oc4cc(O)ccc34)c2)NC1=O`, the values for the Kd in data set [4] and in data set [5] were 57 µM and 27 µM, respectively.

`CC(C)C[C@@H]1NC(=O)[C@H](Cc2ccccc2)NC(=O)[C@H](CC(C)C)NC(=O)[C@H](C(C)C)NC(=O)[C@H](CC(C)C)NC1=O` (cyclo(FLLVL)) came in with a Kd in data set [3] of 100 µM.

On to `CC(C)C[C@@H]1NC(=O)[C@H](CCCCNC(=O)OCc2ccccc2)NC(=O)[C@H](CCCCNC(=O)c2ccc(C(=O)O)c(-c3c4ccc(=O)cc-4oc4cc(O)ccc34)c2)NC(=O)[C@@H](Cc2ccccc2)N(C)C(=O)[C@H](C(C)C)NC1=O`, for which the figures for the Kd in data set [4] and in data set [5] were 180 µM and 120 µM, respectively.

As usually defined, the Kd is the constant that tells how readily two partners part at equilibrium.

These data come from ChEMBL document CHEMBL1921738, “A small molecule that preferentially binds the closed conformation of Hsp90” (Bioorg Med Chem Lett, 2011).
